# Where no end group is shown, it is not given here.
# How the values were obtained:
# human erythrocytes = format: cell-based
# Procedure: In hemolysis assays, the ability of peptides at 128 μg/ml concentration to lyse human erythrocytes to release hemoglobin was measured. The peptides described here preferably have low hemolytic activity (0.2 to 3.8% hemolysis) in mammal body. […] These peptides are useful as antimicrobial drugs as they show little or no side effects at concentrations needed to kill bacteria.
# Minimum inhibition concentrations (MICs) were tested by microbroth dilution method and Chain 104, 105 and 109 inhibited the growth of Escherichia coli (ATCC 25922), Staphylococcus aureus (ATCC 25923), Klebsiella pneumoniae (ATCC 10031) and Pseudomonas aeruginosa (ATCC 27853) between 1-8 μg/ml respectively (Tables 3a, 3b and 3c). The membranolytic activities of the peptides were tested by measuring the release of hemoglobin from erythrocytes of fresh blood donated by voluntiers. Hemoglobin levels were determined spectrometrically by taking OD at 540 nm by following the protocol of Schmidtchen et al., 2011.
# [1] = +4, 25, 37 and 45° C., 14 days, PBS pH 7.4, activity by RDA
# Procedure: FIG. 8a. […] Antibacterial activity was tested by aliquoting 20 μg of peptides incubated at different temperature and activity was measured by zone of inhibition. Peptides at −20° C. served as control.
# (§1) Thermal stability was evaluated by diluting peptides to the concentration of 2 mg/ml in PBS buffer (pH 7.4) and incubating at different temperatures, such as +4° C., 25° C. (RT), 37° C. and 45° C., peptides stored at −20° C. were used as control. After each time interval, 100 μl (2 mg/ml) of peptides were taken and stored at −20° C. for radial diffusion assay to determine the antibacterial activity (FIG. 8). Peptides were also tested by diluting them at different pH values starting from pH 4 to 9. The effect of NaCl on the antimicrobial activity was tested by adding different concentrations (50, 100 and 200 mM) of NaCl to MH medium and the minimum inhibitory concentrations were tested against 4 ATCC bacterial strains.
# [2] = pH 4 to 9, activity by RDA
# Procedure: FIG. 9a. pH stability of chain peptides 104 and 105 was determined by radial diffusion assay (RDA). Different pH ranging from 4-9 was used to check the zone of inhibition.
# as §1
# S. aureus = experiment: Antibacterial activity analysis of protein on LB plate; format: cell-based
# Procedure: Both folded and unfolded proteins were tested for antibacterial activity against S. aureus by pipetting 10 μg of protein on the S. aureus culture on an LB plate. The activity was also tested in folded and unfolded protein digested with trypsin in 0.01% acetic acid at concentrations of 30 and 60 μg/ml.
Molecule,side effects to humans as tested by hemolysis assay (human erythrocytes),thermostability [1],pH stability [2],"antibacterial activity against S. aureus (S. aureus; expressed, folded protein)","antibacterial activity against S. aureus (S. aureus; folded full protein digested with trypsin, data not shown)",antibacterial activity against S. aureus (S. aureus; trypsin digest of the unfolded protein)
RRLIWRRFKWLR [Chain204],little side effects to humans,not hindered by pH or temperature even upto 45 °C for over 14 days,not hindered by pH,,,
"En-MAP1: protein of 549 amino acids from an endophyte of Empetrum nigrum, GenBank accession number KC466596 (protein, listed as Empetrum nigrum) MRLVAHPVPDAPLYALMIKACSMGIPQPNDNLWKPRNPLLAKEEKTSKRGRTAPDTERALDLFREMTLRYNIRPTAEVYTAIIAACVKRDDMYDKGFGLFKKMVELERNRMSSEGHDSTSFAPTRATYNALLRGCARNKDLLRARWILAEMLRTAQAKWQEFMEKSKKGEEGVQEWELLEVEEMRPDTNTMAFLFYTYASHTTSSKAVPETEGKKELEGKAEERASEVTSVSPVSEPPEPMDESKLVYSLPTSSQAILREVTSLLDRIKSDQGQQSNLLSSVQINSKLLNSYIAVLSAHCRSSQVVERISEVVVGTKENPKSLFEETGTSVNGYTCFTVIDACGMMEHSPDTYHLACEMWQRWLSLVENATFHRENPLKAKEIGLDSRTISDCWSAMIRLHAKYNQVDEAMKLVHEFARLYPPASLFNSLTFEPSSTSSSSLSPRKGVQEISPLFSSTSLTHSIRGRDISRIQNTMSQDPTLQFRAVQILHLRLVELETRPKDLAYLSWLLKSYEHQLQPKRPKSLQGDLFTSRQAAYNRIVQQRTSSR",,,,no activity was observed,antibacterial activity was observed for up to two hours after digestion,No activity was detected
